# Experimental data reported in patent US11576859B2, “Gastric residence systems for sustained release of therapeutic agents and methods of use thereof” (Lyndra Therapeutics, Inc., priority 2015, dated 2023).
# Tests used:
# [1] = Aripiprazole stability versus processing temperature
# physchem [2] = conditions: water, thermodynamic from solid
# Source text: First, various surfactants were screened for their ability to improve aripiprazole solubility in FaSSGF and water. Equilibrium solubility of aripiprazole in the presence of surfactants was estimated in water and FaSSGF by the procedure described in Example 50.
# [3] = method not given; cited from earlier work
# [4] = PCL/SGF partition coefficient; type: physicochemical; conditions: 5:1 PCL diol (MW 530):ethyl acetate versus FaSSGF
# Procedure: Partitioning of active pharmaceutical ingredient (API) between the structural polymer, polycaprolactone (PCL), and fasted state simulated gastric fluid (FaSSGF) is of interest for predicting API release rate from PCL-based formulations. To measure the PCL-SGF partition coefficient of an API, a concentrated stock solution of API was added to a mixture of 1 mL FaSSGF and 1 mL of 5:1 PCL diol (MW 530):ethyl acetate. The sample was vortexed and centrifuged at 10000 rpm for 5 minutes. The SGF phase was analyzed by HPLC to measure drug concentration. The PCL phase was diluted in methanol prior to quantification on HPLC.
# physchem [5] = conditions: thermodynamic from solid
# [6] = Time dependent thermal processing stability of aripiprazole at 100 °C; conditions: for Visual Observation / Impurity % 0.86 RRT: extruded at 100 °C
# [7] = Rosuvastatin forced degradation in solution and in polycaprolactone formulation; type: physicochemical
# Procedure: SOLUTION CONDITIONS: For acid degradation studies, rosuvastatin was dissolved to 1 mg/mL in 0.1M HCl and heated for the specified time and temperature. For alkaline degradation, rosuvastatin was dissolved to 1 mg/mL in 0.1M NaOH and heated to 80° C. for 1 h. For oxidative degradation, rosuvastatin was dissolved to 1 mg/mL in 30% hydrogen peroxide and heated to 80° C. for 30 min. For stability over time, rosuvastatin was dissolved to 1 mg/mL in water at room temperature for 5 days. For thermal degradation studies in solution, rosuvastatin was dissolved to 1 mg/mL in dimethylsulfoxide and heated to the specified temperature for 2 h. In each case, samples of the solution were diluted in methanol and analyzed by LCMS to determine the ratio of intact drug to degraded drug.
# POLYMER CONDITIONS: For thermal degradation studies in formulation, rosuvastatin was blended with PCL at a ratio of 25:75 drug:PCL and the blend was heated to the specified temperature for 2 h. The drug-polymer blend was then dissolved in dichloromethane and this solution was added to excess methanol to precipitate PCL. Samples of the methanol solution were then analyzed by LCMS to determine the ratio of intact drug to degraded drug.
# [8] = as above; type: physicochemical; conditions: Heat: 1 mg/mL drug in DMSO, 1 h
# [9] = oral, once daily; cited from earlier work
# [10] = extruded at 90 °C, same formulation
# [11] = extruded at 100 °C, same formulation
# [12] = extruded at 120 °C, same formulation
# [13] = extruded at 140 °C, same formulation
# [14] = extruded at 160 °C, same formulation
# [15] = extruded at 180 °C, same formulation
molecule,measurement,setting,value
O=C1CCc2ccc(OCCCCN3CCN(c4cccc(Cl)c4Cl)CC3)cc2N1 [Aripiprazole],Visual Observation,"[1]; extruded at 90 °C, 10 min batch mixing 75 rpm, 20% Aripiprazole/10% Kolliphor P407/10% Eudragit EPO/80 K PCL formulation",White
same,% Impurity Total,[1]; [10],<0.05%
same,% Impurity at RRT 0.64,[1]; [10],<0.05%
same,% Impurity Total,[1]; [11],<0.05%
same,% Impurity at RRT 0.64,[1]; [11],<0.05%
same,Visual Observation,[1]; [11],White
same,% Impurity Total,[1]; [12],<0.05%
same,% Impurity at RRT 0.64,[1]; [12],<0.05%
same,Visual Observation,[1]; [12],White
same,% Impurity Total,[1]; [13],0.14%
same,% Impurity at RRT 0.64,[1]; [13],<0.05%
same,% Impurity at RRT 0.86,[1]; [13],0.14%
same,Visual Observation,[1]; [13],Slight pink
same,% Impurity Total,[1]; [14],0.21%
same,% Impurity at RRT 0.22,[1]; [14],0.08%
same,% Impurity at RRT 0.42,[1]; [14],0.08%
same,% Impurity at RRT 0.64,[1]; [14],0.05%
same,Visual Observation,[1]; [14],Brown
same,% Impurity Total,[1]; [15],0.60%
same,% Impurity at RRT 0.22,[1]; [15],0.28%
same,% Impurity at RRT 0.42,[1]; [15],0.12%
same,% Impurity at RRT 0.64,[1]; [15],0.07%
same,% Impurity at RRT 0.71,[1]; [15],<0.05%
same,% Impurity at RRT 0.81,[1]; [15],0.05%
same,% Impurity at RRT 0.93,[1]; [15],0.08%
same,Visual Observation,[1]; [15],Brown
same,solubility,physchem [2],~0.456 µg/mL
same,LogP (Octanol/water),[3],5.59
same,LogP (PCL/SGF),[4],1.67
same,PCL/SGF Partition Coefficient,[4],49
same,solubility,"physchem [5]; pH 1.06, simulated gastric fluid",500 µg/mL
same,solubility,"physchem [5]; pH 3, aqueous buffer",120 µg/mL
same,solubility,"physchem [5]; pH 4.65, aqueous buffer",110 µg/mL
same,degradation at 100 °C at all the timepoints,"[6]; 5 to 30 minutes extrusion, same formulation",no significant degradation
same,Visual Observation,"[6]; 5 min, 75 rpm, 20% aripiprazole/10% Kolliphor P407/10% Eudragit EPO/80 K PCL formulation",White colored extrudate
same,Impurity % 0.86 RRT,"[6]; 5 min, same formulation",0.08%
same,Impurity % 0.86 RRT,"[6]; 10 min, same formulation",0.08%
same,Visual Observation,"[6]; 10 min, same formulation",White colored extrudate
same,Impurity % 0.86 RRT,"[6]; 15 min, same formulation",0.08%
same,Visual Observation,"[6]; 15 min, same formulation",White colored extrudate
same,Impurity % 0.86 RRT,"[6]; 20 min, same formulation",0.08%
same,Visual Observation,"[6]; 20 min, same formulation",White colored extrudate
same,Impurity % 0.86 RRT,"[6]; 30 min, same formulation",0.08%
same,Visual Observation,"[6]; 30 min, same formulation",White colored extrudate
CC12CC3CC(C)(C1)CC(N)(C3)C2 [Memantine],LogP (PCL/SGF),[4],−0.56
same,PCL/SGF Partition Coefficient,[4],0.28
Cc1nc2n(c(=O)c1CCN1CCC(c3noc4cc(F)ccc34)CC1)CCCC2 [Risperidone],PCL/SGF Partition Coefficient,[4],0.03
CC(C)c1nc(N(C)S(C)(=O)=O)nc(-c2ccc(F)cc2)c1/C=C/[C@@H](O)C[C@@H](O)CC(=O)[O-].CC(C)c1nc(N(C)S(C)(=O)=O)nc(-c2ccc(F)cc2)c1/C=C/[C@@H](O)C[C@@H](O)CC(=O)[O-].[Ca+2] [Rosuvastatin calcium],% Intact drug,"[7]; Acid: 0.1N HCl, 37 C., 2 d",66%
same,% Intact drug,"[7]; Acid: 0.1N HCl, 37 C., overnight, 1 mg/mL",87%
same,% Intact drug,"[7]; Acid: 0.1N HCl, 50 C., 4 h",93%
same,% Intact drug,"[7]; Acid: 0.1N HCl, 50 C., overnight",58%
same,% Intact drug,"[7]; Acid: 0.1N HCl, 80 C., 1 h",~100%
same,% Intact drug,"[7]; Base: 0.1M NaOH, 80 C., 1 h",~100%
same,% Intact drug,"[7]; Heat: 1 mg/mL drug in DMSO, 100 C., 2 h",86%
same,% Intact drug,"[7]; Heat: 1 mg/mL drug in DMSO, 120 C., 2 h",77%
same,% Intact drug,"[7]; Oxidation: 30% H2O2, 80 C., 30 min",~100%
same,% Intact drug,"[7]; Polymer-blended: 25% drug in polycaprolactone, 100 C., 2 h",>95%
same,% Intact drug,"[7]; Polymer-blended: 25% drug in polycaprolactone, 120 C., 2 h",>95%
same,% Intact drug,"[7]; Time: 1 mg/mL drug in water, room temperature, 5 days",62%
same,% Intact drug,[8]; 100 C.,86%
same,% Intact drug,[8]; 120 C.,>95%
CC(C)c1nc(N(C)S(C)(=O)=O)nc(-c2ccc(F)cc2)c1/C=C/[C@@H](O)C[C@@H](O)CC(=O)O [Rosuvastatin],elimination half-life,[9],approximately 19 hours
same,acid stability in PCL formulation versus in solution,[7]; FIG. 20,protects the drug from acid degradation
same,thermal stability in PCL formulation versus in solution,[7]; FIG. 21,protects the drug from degradation at elevated temperatures
Doxycycline Hyclate,LogP (Octanol/water),[3],−1.9
same,LogP (PCL/SGF),[4],0.27
same,PCL/SGF Partition Coefficient,[4],1.88
Ivermectin,LogP (Octanol/water),[3],4.1
same,LogP (PCL/SGF),[4],2.60
same,PCL/SGF Partition Coefficient,[4],398
